US9539256B2 (THE BOARD OF REGENTS OF THE UNIVERSITY OF TEXAS SYSTEM, priority 2012, dated 2017)
“Also recorded” adds a separate entry of the source.

Experiments:
MIA PaCa-2 = assay: Orthotopic MIA PaCa-2 pancreatic cancer metastasis model; format: in vivo; details: athymic nude mice; 50 mg/kg per day, oral gavage; weekly bioluminescence imaging; 50 mg/kg/day
Method: FIG. 14. ESI-09 inhibits PDA metastasis in vivo. MIA PaCa-2 stably expressing luciferase was orthotopically implanted into the pancreas of athymic nude mice. The mice were randomly divided into two groups and treated with vehicle or ESI-09 (50 mg/kg, oral gavage), respectively. The growth and metastasis of the tumors were monitored by weekly bioluminescence imaging using the IVIS bioluminescence imaging system.
It has been recently reported that EPAC1 is over-expressed in pancreatic adenocarcinoma (Lorenz et al. (2008) Pancreas 37: 102-103). However, the functional role of EPAC1 elevation in this neoplasm is not clear. The inventors sought to employ ESI-09 to determine the role of EPAC1 signaling in pancreatic cancer. […] In order to determine if the observed impact on cell migration is EPAC1 specific, the effect of suppressing EPAC1 expression on AsPC-1 and PANC-1 migration using RNAi was examined. […] To further determine how ESI-09 inhibits PDA cell migration and invasion, a cell adhesion assay was performed using a collagen I matrix. […] To determine the in vivo anti-metastatic effect of ESI-09, MIA PaCa-2 stably expressing luciferase were orthotopically implanted into the pancreas of athymic nude mice. […] The growth and metastasis of the tumors were monitored by weekly bioluminescence imaging using the IVIS bioluminescence imaging system.

EPAC2 = biological target: T1, EPAC2 (Mus musculus, UniProt Q9EQZ6); assay: 8-NBD-cAMP competition binding to EPAC2
T1 sequence (Q9EQZ6 1-1011): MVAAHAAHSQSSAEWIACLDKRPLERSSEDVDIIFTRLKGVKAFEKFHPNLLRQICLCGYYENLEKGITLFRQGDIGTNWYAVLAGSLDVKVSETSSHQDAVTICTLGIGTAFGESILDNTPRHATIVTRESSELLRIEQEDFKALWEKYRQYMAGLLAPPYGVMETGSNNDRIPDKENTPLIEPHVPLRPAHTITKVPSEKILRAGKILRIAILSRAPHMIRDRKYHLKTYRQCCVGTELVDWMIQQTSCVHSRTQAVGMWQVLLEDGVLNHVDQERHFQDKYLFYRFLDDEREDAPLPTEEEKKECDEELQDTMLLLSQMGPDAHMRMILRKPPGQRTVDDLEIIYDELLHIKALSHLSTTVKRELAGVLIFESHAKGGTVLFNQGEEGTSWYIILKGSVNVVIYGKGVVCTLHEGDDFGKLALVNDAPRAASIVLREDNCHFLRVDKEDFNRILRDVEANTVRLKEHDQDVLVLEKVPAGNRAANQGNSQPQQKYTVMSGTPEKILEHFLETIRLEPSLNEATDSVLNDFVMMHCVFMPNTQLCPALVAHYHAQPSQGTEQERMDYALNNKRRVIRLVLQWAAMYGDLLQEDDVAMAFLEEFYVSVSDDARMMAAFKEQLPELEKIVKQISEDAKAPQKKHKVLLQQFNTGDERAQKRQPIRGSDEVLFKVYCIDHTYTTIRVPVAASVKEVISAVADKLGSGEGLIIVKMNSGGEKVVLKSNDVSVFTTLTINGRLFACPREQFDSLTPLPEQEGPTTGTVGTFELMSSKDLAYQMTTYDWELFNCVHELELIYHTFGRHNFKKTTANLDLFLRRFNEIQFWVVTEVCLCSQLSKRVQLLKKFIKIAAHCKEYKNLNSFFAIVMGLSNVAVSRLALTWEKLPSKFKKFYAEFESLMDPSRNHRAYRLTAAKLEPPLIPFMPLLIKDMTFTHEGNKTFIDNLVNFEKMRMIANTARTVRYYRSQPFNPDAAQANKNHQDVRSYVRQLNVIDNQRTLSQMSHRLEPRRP
Method: Primary screen is performed in black 96-well or 384-well microplates. As an example, 50 nM EPAC2 solution is prepared in 20 mM Tris buffer, pH 7.5, containing 150 mM NaCl, 1 mM EDTA, and 1 mM […]. […] Sample is dispensed into plate and test compounds added from 96-well mother plates. […] Fluorescence intensity signal from 8-NBD was recorded at room temperature (rt) before and after tested compounds are added using SpectaMaxM2 microplate reader (Molecular Devices, Silicon Valley, Calif., USA) with excitation/emission wavelengths set at 470/540 nm.

AsPC-1 and PANC-1 cells = assay: Pancreatic cancer cell viability, alamar blue assay; format: cell-based; parameters: dose or concentration left out as unconfirmed; details: ESI-09 for 24 hours and 48 hours
Method: FIG. 11. Effects of ESI-09 treatment on pancreatic cancer cell viability. AsPC-1 and PANC-1 cells were treated with vehicle control (open bars) or with […] ESI-09 (filled bars) for 24 hours and 48 hours. Cell viability was measured by a fluorometric alamar blue assay. Bars represent mean±s.d. (n=3).

Plasma leptin = Plasma leptin of wild-type mice after 3 weeks treatment; format: in vivo; details: 50 mg/kg oral gavage for 3 weeks; relative to vehicle
Method: (§1) FIGS. 17A-17B. Pharmacological inhibition of EPAC reduces plasma leptin and enhances leptin signaling in hypothalamus (A) Western blotting of pSTAT3 Y705, total STAT3, SOCS3, SHP2 and α-tubulin in organotypic brain slices at hypothalamus level treated with leptin with or without EPAC specific inhibitor. (B) Plasma leptin levels of 8-week-old wild-type mice treated 3 weeks with vehicle or ESI-09 (50 mg/kg).
(§2) To explore the feasibility of increasing leptin sensitivity by targeting Epac1 using small molecules, organotypic brain slice cultures were prepared from 11-day old wild-type C57BL/6 mice. After 7 days ex vivo culture, treatment of the brain tissue with the Epac specific antagonist ESI-09 led to an enhanced pSTAT3 Y705 level both at the basal state and in response to leptin stimulation. […] These pharmacological data are in agreement with results obtained using Epac1 KO mice and further confirm that inhibition of Epac1 enhances leptin signaling in the hypothalamus. To further investigate the therapeutic potential of this small molecule, wild-type mice were with ESI-09 (50 mg/kg) or vehicle (corn oil) by oral gavage for 3 weeks.

type II PKA holoenzyme = assay: PKA counter screening, type II holoenzyme; format: biochemical; details: 25 μM compound
Method: Kinase activity of the type I and II PKA holoenzyme are measured spectrophotometrically in a 96-well plate with a coupled enzyme assay as described previously (Cook et al. (1982) Biochemistry 21: 5794-5799). In this assay, the formation of ADP is coupled to the oxidation of NADH by the pyruvate kinase/lactate dehydrogenase reactions so the reaction rate can be determined by following the oxidation of NADH, reflected by a decrease in absorbance at 340 nm. […] Reactions are pre-equilibrated at room temperature and initiated by adding the Kemptide substrate (final concentration 0.26 mM).

pSTAT3 Y705 = assay: Leptin signaling in organotypic brain slice cultures, Western blotting; format: cell-based, mice; details: basal state and in response to leptin stimulation
Method: as §1, §2

CC(C)(C)c1cc(C(=O)C(C#N)=NNc2cccc(Cl)c2)no1 [ESI-09, 3-(5-Tert-Butyl-Isoxazol-3-Yl)-2-[(3-Chlorophenyl)-Hydrazono]-3-Oxo-Propionitrile]
PDA metastasis (MIA PaCa-2): reduced; also recorded: inhibits | Relative Potency (RA) (EPAC2; RA = IC50, cAMP/IC50, compound): 3.9 | IC50 (EPAC2; read-out: Apparent IC50, competing with 8-NBD-cAMP in binding EPAC2): 10 ± 1.2 µM | cell proliferation and viability (AsPC-1 and PANC-1 cells): did not significantly affect | Plasma leptin (Plasma leptin): significantly reduced | cAMP-induced type II PKA holoenzyme activation (type II PKA holoenzyme): did not significantly alter | pSTAT3 Y705 level (pSTAT3 Y705): enhanced
